Measurements published in patent publication US20260108602A1, “METHODS AND SYSTEMS FOR IMPROVING ANTI-CANCER THERAPIES” (Osasuna Therapeutics SA, priority 2023, published 2026).

Assays:
[1] = tested on: Dbi^+/+ and Dbi^−/− HCC cells; experiment: CCK-8 viability assay of primary HCC cells treated with ferroptosis inducers; assay type: cell-based, mouse; settings: ferroptosis inducer combined with Dbi knockout; normalized to respective Dbi^+/+ and Dbi^−/− vehicle controls
Description: (FIG. 26A-FIG. 26D). Groups receiving ferroptosis inducers were normalized to their respective Dbi^+/+ and Dbi^−/− vehicle (Veh) treated control groups.
Proliferation assays. CCK-8 assays were performed with a commercial kit. For colony formation assays, HEPG-2 (NC, SH1, SH2, and SH3, 1000 cells/well), HUH-7 (NC, SH1, SH2, and SH3, 1000 cells/well) and Hep55.1C (NC, SH1, SH2, and SH3, 500 cells/well) cancer cells were seeded into 6-well plates in 2 mL medium with 10% FBS. The medium was changed every 3 days until control (NC) wells approached confluency, within 7-14 days. After gently washed twice with PBS, colonies were fixed with 4% paraformaldehyde for 30 min and stained with 0.2% crystal violet for 30 min at room temperature. The colony number (colonies >0.3 mm) was counted with isoftware. All experiments were performed in triplicates.
Six-well plates were coated with 2% FBS/PBS+0.1% laminin. HCC tumors were isolated from NASH-driven mouse model (WD+D-fructose+D-glucose in water+CCl4 administered to DBI^+/+ or DBI^−/− mice) and washed twice with ice-cold PBS. The tumor tissues were transferred to 10 cm plates, minced completely with a razor blade and then transferred to 15 mL falcon tubes. Ten mL 2 mg/mL collagenase dispase solution was added, the cells were incubated rotating for 30 min at 37° C. and were filtered through 100 μm meshes into 50 mL falcon tubes, before addition of 10 mL 2% FBS/PBS to wash the tissues. The samples were then filtered sequentially through 70 μm and 40 μm strainers, brought up to 15 mL volume and centrifuged again (room temperature (RT), 1000 rpm, 2 min). The cells were then resuspended in 5 mL of 1×red blood cell (RBC) lysis buffer, incubated on ice for 10 min before addition of 5 mL 2% FBS/PBS, followed by spinning (RT, 1000 rpm, 2 min). The washing step was repeated 2 times, and the cells were resuspended in culture medium (500 mL DMEM+10% FBS+1×ITS+20 μl EGF (1 μg/μl)+20 μl IGFII (0.2 μg/μl)), before seeding into 6-well plates.

[2] = tested on: E0771 breast cancer cells; experiment: Subcutaneous E0771 breast cancer model with anti-PD1 immunotherapy
Description: E0771—For the establishment of syngeneic solid tumors, C57BL/6J mice (8-weeks-old female) were injected subcutaneously (s.c.) with 5×10^5 wild type E0771 in the right lower quadrant of the abdomen alongside of the mammary gland (close to the orthotopic site). Approximately 7 days after injection, tumor growth was monitored with an electronic caliper and mice were assigned to different groups. From day 8, mice were treated with a neutralizing anti-DBI monoclonal antibody (5 mg/kg) or its isotype (IgG2A, 5 mg/kg) every two days. At the same time, free corticosterone (Sigma-Aldrich) was added to the drinking water (0.1 mg/ml; water/ethanol 0.66%). Anti-PD1 monoclonal antibody (αPD1; 10 mg/kg) was injected at days 12, 15, 18 and 21. Tumor growth was monitored routinely with an electronic caliper.
For tumor growth experiments, longitudinal analyses were performed by linear mixed effect modeling of tumor sizes. […]
C57BL/6J mice were inoculated subcutaneously (s.c.) with syngeneic E0771 breast cancer cells. Six days later treatment of corticosterone (CORT or as a control with vehicle only, 0.66% ethanol, which was administered in the drinking water) and anti-ACBP/DBI mAb (or the isotype control mAb, both injected i.p. three times per week) was initiated and tumor growth was monitored over several weeks. […]

[3] = tested on: TC1 NSCLC cells; experiment: Orthotopic TC1 Luc lung cancer model (bioluminescence imaging); assay type: in vivo, C57BL/6J mice; settings: corticosterone in drinking water + OXA + anti-PD1
Description: TC-1—To establish the orthotopic TC1 model, wild type TC1 Luc cells (5×10^5 in 100 μL PBS) were intravenously injected to wild type C57BL/6J mice. Tumor incidence and development were monitored by in vivo photonic imaging of tumor cells' luciferase activity. About 7 days after injection, tumor incidence in the lung was detected at an exposure time of 4 min, and mice were randomized according to quantified tumor sizes and assigned to different groups for treatment as described below. Anti-DBI or isotype control antibody was intraperitoneally (i.p.) injected on day 9, at the dose of 2.5 mg/kg body weight, and on day 10, then maintained every other day until day 18. […]
Next, the positive effects of anti-ACBP/DBI mAb on chemo-immunotherapy in another model, namely non-small cell lung cancers (NSCLC) were confirmed. TC1 NSCLC cells expressing luciferase injected intravenously (i.v.) into syngeneic immunocompetent C57BL/6J mice form orthotopic lung cancers that can be monitored by bioluminescence imaging. […] From day 9 post-inoculation of TC1 cells, NSCLC-bearing mice were periodically i.p. injected with anti-ACBP/DBI mAb (or an isotype control mAb) and then were treated on day 11 post-inoculation with OXA (i.p. once) and anti-PD1 mAb (injected i.p. on days 19, 23 and 27 post-TC1 injection) (FIG. 4A) and tumor progression was determined by bioluminescence imaging (FIG. 4B). […]

[4] = tested on: MCA205 fibrosarcoma cells; experiment: Anti-tumor vaccination assay (MTX-treated MCA205 cells, rechallenge with live cells); assay type: in vivo, C57BL/6J mice; settings: CORT in drinking water + vaccination with MTX-treated MCA205 cells
Description: Wild-type MCA205 cells were treated with MTX (4 μM) for 24 h. Then supernatants and detached cells were collected and centrifuged, and the pellet was further washed with ice-cold PBS. 2×10^6 cells in 100 μl PBS were s.c. injected to the left flank of immunocompetent C57BL/6J mice (day −7). PBS was injected as a negative control. One week later, all mice were confirmed tumor-free in the vaccination flank and living cancer cells (2×10^5 cells per mouse for MCA205 cells) were injected in the right flank of vaccinated mice (day 0). Corticosterone and neutralizing anti-DBI monoclonal antibody were continually administrated throughout the experiment. Tumor growth was regularly monitored for the following weeks.
After the first week of treatment, the animals were subcutaneously (s.c.) injected with mitoxantrone (MTX)-treated MCA205 fibrosarcoma cells, knowing that MTX-induces ICD and that MTX-treated cancer cells induce a protective anti-cancer immune response that suppresses, delays or reduces the growth of tumors that would grow in naïve mice after injection of live, untreated MCA205 fibrosarcoma cell. [Panaretakis T. et al., Mechanisms of pre-apoptotic calreticulin exposure in immunogenic cell death, EMNO J, 2009, 28 (5), pp. 578-590.]

| Structure (SMILES) | viability (CCK-8) [1] | tumor growth (effect of anti-PD1) ([2]; CORT in drinking water + anti-PD1) | animal survival (efficacy of anti-PD1) ([2]; corticotherapy + anti-PD1) | chemo-immunotherapeutic effect (tumor size by bioluminescence) [3] | vaccination effect [4] |
| --- | --- | --- | --- | --- | --- |
| CC(C)Oc1ccc(C(=O)Cn2ccnc2)cc1-n1c(CN2CCN(C(=O)COc3ccc(Cl)cc3)CC2)nc2ccccc2c1=O [IKE, imidazole ketone erastin] | particularly vulnerable to losing their viability |  |  |  |  |
| CCCCC/C=C\C/C=C\CCCCCCCC(=O)O [LA, linoleic acid] | particularly vulnerable to losing their viability |  |  |  |  |
| COC(=O)c1ccc([C@@H]2c3[nH]c4ccccc4c3C[C@@H](C(=O)OC)N2C(=O)CCl)cc1 [RSL3] | particularly vulnerable to losing their viability |  |  |  |  |
| C[C@]12C[C@H](O)[C@H]3[C@@H](CCC4=CC(=O)CC[C@@]43C)[C@@H]1CC[C@@H]2C(=O)CO [corticosterone] |  | lost | loss | strongly interfered | reduced this vaccination effect |
